The record followed here is patent US7994209B2, “3-phenoxymethylpyrrolidine compounds” (Theravance, Inc., priority 2009, dated 2011).

Bounds are passed on as bounds.

Assay [1] addresses T1, hNET (Homo sapiens, UniProt P23975). As to the kind of experiment: fluorescence-based norepinephrine reuptake inhibition assay (Tsuruda et al. 2010; data indicated by an asterisk). Set-up: expressed in transfected cells; host or cells: HEK-293. It is filed as cell-based. Conditions: norepinephrine reuptake inhibition, fluorescence-based assay (values with asterisk); read-out: NET pIC50 (converted).

The target in assay [2] is T2, hSERT (Homo sapiens, UniProt P31645). The assay can be described thus: fluorescence-based serotonin reuptake inhibition assay (Tsuruda et al. 2010; data indicated by an asterisk). It is filed as cell-based. More on the design: expressed in transfected cells; host or cells: HEK-293. Conditions: fluorescence-based assay (values with asterisk), read-out: SERT pIC50 (converted).

The target in assay [3] is T1, hNET. As to the kind of experiment: hNET membrane radioligand binding assay (3H-nisoxetine), Assay 1.
Assay [4] has as its target T2, hSERT. The assay can be described thus: hSERT membrane radioligand binding assay (3H-citalopram), Assay 1. The conditions noted are these: SERT pKi, hSERT HEK-293 membranes, 1.0 nM 3H-citalopram; values given as lower bounds.

T2 sequence (P31645 whole entry): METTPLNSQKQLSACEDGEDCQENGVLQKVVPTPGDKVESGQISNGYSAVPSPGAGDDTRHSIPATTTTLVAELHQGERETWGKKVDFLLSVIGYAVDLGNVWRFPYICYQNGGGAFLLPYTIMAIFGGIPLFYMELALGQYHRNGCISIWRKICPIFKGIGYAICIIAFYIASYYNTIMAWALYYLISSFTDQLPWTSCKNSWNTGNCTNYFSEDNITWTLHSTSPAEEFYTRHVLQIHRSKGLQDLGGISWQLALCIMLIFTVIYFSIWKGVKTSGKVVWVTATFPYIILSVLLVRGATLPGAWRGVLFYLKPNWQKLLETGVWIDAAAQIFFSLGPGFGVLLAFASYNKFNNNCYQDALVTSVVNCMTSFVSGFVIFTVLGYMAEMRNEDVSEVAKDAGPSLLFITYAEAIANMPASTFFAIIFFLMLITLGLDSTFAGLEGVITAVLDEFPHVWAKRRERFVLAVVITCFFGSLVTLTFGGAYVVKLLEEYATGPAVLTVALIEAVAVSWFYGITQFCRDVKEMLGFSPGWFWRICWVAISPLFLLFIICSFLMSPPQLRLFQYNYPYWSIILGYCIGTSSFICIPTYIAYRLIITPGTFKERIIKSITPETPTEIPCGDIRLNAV
T1 sequence (P23975 whole entry): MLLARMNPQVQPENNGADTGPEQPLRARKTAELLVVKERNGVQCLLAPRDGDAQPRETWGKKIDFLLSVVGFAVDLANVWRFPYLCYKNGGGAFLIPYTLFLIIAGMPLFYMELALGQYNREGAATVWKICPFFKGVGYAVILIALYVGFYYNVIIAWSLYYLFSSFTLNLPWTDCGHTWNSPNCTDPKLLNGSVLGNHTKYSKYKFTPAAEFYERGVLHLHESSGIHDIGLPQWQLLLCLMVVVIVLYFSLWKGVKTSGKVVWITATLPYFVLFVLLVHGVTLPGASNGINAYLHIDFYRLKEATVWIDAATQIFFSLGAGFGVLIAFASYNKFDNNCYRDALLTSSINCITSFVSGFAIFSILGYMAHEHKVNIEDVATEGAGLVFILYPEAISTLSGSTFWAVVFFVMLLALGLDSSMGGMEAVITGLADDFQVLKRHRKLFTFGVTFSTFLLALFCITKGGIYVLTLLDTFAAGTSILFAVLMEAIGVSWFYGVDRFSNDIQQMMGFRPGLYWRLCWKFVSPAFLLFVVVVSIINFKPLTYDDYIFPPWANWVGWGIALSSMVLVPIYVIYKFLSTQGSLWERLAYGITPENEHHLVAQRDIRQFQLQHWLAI

Usually Ki stands for the dissociation constant of the complex between target and ligand, obtained from inhibition or displacement. With `Cc1c(Cl)cccc1O[C@@H](CC(C)C)[C@@H]1CCNC1` [Example 10-32, (R)-3-[(S)-1-(3-Chloro-2-methylphenoxy)-3-methylbutyl]pyrrolidine], the IC50 on hNET [1] and at hSERT [2] was at most 10 nM throughout. In addition, the Ki at hNET [3] and at hSERT [4] was at most 10 nM in each case.

On to `Clc1ccc(O[C@H](C2CC2)[C@H]2CCNC2)cc1Cl` [Example 16-88, (S)-3-[(R)cyclopropyl-(3,4-dichlorophenoxy)methyl]pyrrolidine], for which the IC50 on hNET [1] and on hSERT [2] was at most 10 nM in each case. Moreover, the Ki on hNET [3] and on hSERT [4] was at most 10 nM each time.

`Fc1c(Cl)cccc1O[C@@H](C1CC1)[C@H]1CCNC1` [Example 16-11, (S)-3-[(S)-(3-Chloro-2-fluorophenoxy)cyclopropylmethyl]pyrrolidine]: the IC50 on hNET [1] and on hSERT [2] was at most 10 nM throughout. The Ki on hNET [3] and at hSERT [4] was at most 10 nM each time.

Regarding `Fc1c(Cl)ccc(O[C@@H](C2CC2)[C@H]2CCNC2)c1Cl` [Example 16-52, (S)-3-[(S)cyclopropyl-(2,4-dichloro-3-fluorophenoxy)methyl]pyrrolidine], the IC50 at hNET [1] and on hSERT [2] was at most 10 nM in each case. Also, the Ki at hNET [3] and at hSERT [4] was at most 10 nM in each case.

With `Fc1ccc(Cl)c(Cl)c1O[C@@H](C1CC1)[C@H]1CCNC1` [Example 16-59, (S)-3-[(S)cyclopropyl-(2,3-dichloro-6-fluorophenoxy)methyl]pyrrolidine], the IC50 on hNET [1] and at hSERT [2] was at most 10 nM each time. In addition, the Ki on hNET [3] and at hSERT [4] was at most 10 nM each time.

For the compound `CC(C)C[C@H](Oc1cc(Cl)cc(Cl)c1)[C@@H]1CCNC1` [Example 10-80, (R)-3-[(S)-1-(3,5-Dichlorophenoxy)-3-methylbutyl]pyrrolidine], the IC50 at hNET [1] and on hSERT [2] was at most 10 nM throughout. Also, the inhibitory constant (Ki) at hNET [3] and at hSERT [4] was at most 10 nM each time.

`CCOc1cc(Cl)ccc1O[C@@H](C1CC1)[C@H]1CCNC1` [Example 16-41, (S)-3-[(S)-(4-Chloro-2-ethoxyphenoxy)cyclopropylmethyl]pyrrolidine]: the figures for the IC50 at hNET [1] and on hSERT [2] were at most 10 nM and at most 100 nM, respectively. Besides, the Ki on hNET [3] and at hSERT [4] was at most 10 nM in each case.

Take `COc1c(F)ccc(O[C@@H](C2CC2)[C@H]2CCNC2)c1F` [Example 16-54, (S)-3-[(S)cyclopropyl-(2,4-difluoro-3-methoxyphenoxy)methyl]pyrrolidine]: the IC50 at hNET [1] and on hSERT [2] was at most 10 nM in each case. Besides, the Ki at hNET [3] and on hSERT [4] was at most 10 nM throughout.

Turning to `CC(C)C[C@H](Oc1cccc(Cl)c1Cl)[C@@H]1CCNC1` [Example 10-24, (R)-3-[(S)-1-(2,3-Dichlorophenoxy)-3-methylbutyl]pyrrolidine], the IC50 at hNET [1] and at hSERT [2] was at most 10 nM throughout. For the same compound, the Ki at hNET [3] and at hSERT [4] was at most 10 nM each time.

Consider `Fc1ccc(O[C@@H](C2CC2)[C@H]2CCNC2)c(F)c1F` [Example 16-46, (S)-3-[(S)cyclopropyl-(2,3,4-trifluorophenoxy)methyl]pyrrolidine], for which the IC50 at hNET [1] and on hSERT [2] was at most 10 nM each time. Besides, the Ki on hNET [3] and at hSERT [4] was at most 10 nM in each case.

For the compound `CC(C)C[C@H](Oc1c(Cl)cccc1Cl)[C@@H]1CCNC1` [Example 10-56, (R)-3-[(S)-1-(2,6-Dichlorophenoxy)-3-methylbutyl]pyrrolidine], the IC50 at hNET [1] and on hSERT [2] was at most 100 nM each time. Further, the Ki on hNET [3] and on hSERT [4] was at most 10 nM in each case.

On to `Fc1ccc(Cl)c(F)c1O[C@H](C1CC1)[C@H]1CCNC1` [Example 16-67, (S)-3-[(R)-(3-Chloro-2,6-difluorophenoxy)cyclopropylmethyl]pyrrolidine], for which the IC50 at hNET [1] was at most 10 nM; on hSERT [2], at most 100 nM. The Ki at hNET [3] and at hSERT [4] was at most 10 nM in each case.

Consider `Cc1cccc(O[C@@H](C2CC2)[C@H]2CCNC2)c1C` [Example 16-12, (S)-3-[(S)cyclopropyl-(2,3-dimethylphenoxy)-methyl]pyrrolidine], for which the IC50 on hNET [1] and on hSERT [2] was at most 10 nM each time. The Ki at hNET [3] and at hSERT [4] was at most 10 nM throughout.

For `Clc1cccc(O[C@H](C2CC2)[C@H]2CCNC2)c1` [Example 16-85, (S)-3-[(R)-(3-Chlorophenoxy)cyclopropylmethyl]pyrrolidine], the IC50 at hNET [1] is at most 10 nM; on hSERT [2], at most 100 nM. Further, the Ki on hNET [3] and at hSERT [4] was at most 10 nM each time.

As to `CC(C)[C@H](Oc1c(Cl)cccc1Cl)[C@H]1CCNC1` [Example 6-28, (S)-3-[(S)-1-(2,6-Dichlorophenoxy)-2-methylpropyl]pyrrolidine], the IC50 on hNET [1] is at most 10 nM; on hSERT [2] it was at most 100 nM. The Ki on hNET [3] and at hSERT [4] was at most 10 nM throughout.

In the case of `c1ccc2c(O[C@@H](C3CC3)[C@H]3CCNC3)cccc2c1` [Example 22, (S)-3-[(S)-Cyclopropyl(naphthalen-1-yloxy)methyl]pyrrolidine], the IC50 on hNET [1] and at hSERT [2] was at most 10 nM each time. Also, the Ki on hNET [3] and on hSERT [4] was at most 10 nM in each case.

`Cc1cc(Cl)ccc1OC(C1CCCC1)C1CCNC1` (centres unmarked) [Example 18-7, 3-[(4-Chloro-2-methylphenoxy)cyclopentylmethyl]pyrrolidine]: the IC50 at hNET [1] is at most 100 nM; at hSERT [2] it was at most 10 nM.

`CC[C@@H](Oc1cccc(Cl)c1Cl)[C@H]1CCNC1` [Example 2-31, (S)-3-[(R)-1-(2,3-Dichlorophenoxy)propyl]pyrrolidine]: the IC50 on hNET [1] and on hSERT [2] was at most 10 nM in each case.

As for `CC(C)[C@H](Oc1c(F)cc(Cl)cc1F)[C@H]1CCNC1` [Example 6-5, (S)-3-[(S)-1-(4-Chloro-2,6-difluorophenoxy)-2-methylpropyl]pyrrolidine], the IC50 on hNET [1] and on hSERT [2] was at most 10 nM throughout.

In the case of `CCC[C@H](Oc1ccc(Cl)c(C)c1)[C@H]1CCNC1` [Example 4-16, (S)-3-[(S)-1-(4-Chloro-3-methylphenoxy)butyl]pyrrolidine], the IC50 on hNET [1] and on hSERT [2] was at most 10 nM in each case.

As to `CC[C@H](Oc1cccc(Cl)c1C)[C@H]1CCNC1` [Example 2-64, (S)-3-[(S)-1-(3-Chloro-2-methylphenoxy)propyl]pyrrolidine], the IC50 on hNET [1] and on hSERT [2] was at most 10 nM throughout.

Take `Clc1cccc(Cl)c1OC(C1CCCC1)C1CCNC1` (centres unmarked) [Example 18-8, 3-[Cyclopentyl-(2,6-dichlorophenoxy)methyl]pyrrolidine]: the IC50 is at most 10 nM at hNET [1] and at most 100 nM on hSERT [2].

As for `CCC[C@@H](Oc1cc(F)cc(Cl)c1)[C@H]1CCNC1` [Example 4-10, (S)-3-[(R)-1-(3-Chloro-5-fluorophenoxy)butyl]pyrrolidine], the results for the IC50 at hNET [1] and on hSERT [2] were at most 10 nM and at most 100 nM, respectively.

In the case of `Cc1cc(Cl)cc(Cl)c1O[C@H](C1CC1)[C@H]1CCNC1` [Example 16-78, (S)-3-[(R)cyclopropyl-(2,4-dichloro-6-methylphenoxy)methyl]pyrrolidine], the IC50 on hNET [1] and at hSERT [2] was at most 100 nM each time.

Consider `CC(C)[C@H](Oc1ccc(Cl)c(Cl)c1)[C@@H]1CCNC1` [Example 6-65, (R)-3-[(S)-1-(3,4-Dichlorophenoxy)-2-methylpropyl]pyrrolidine], for which the results for the IC50 on hNET [1] and on hSERT [2] were at most 100 nM and at most 10 nM, respectively.

For the compound `CC(C)C[C@@H](Oc1ccc(Cl)cc1F)[C@H]1CCNC1` [Example 10-40, (S)-3-[(R)-1-(4-Chloro-2-fluorophenoxy)-3-methylbutyl]pyrrolidine], the IC50 is at most 10 nM on hNET [1] and at most 100 nM on hSERT [2].

For the compound `Cc1cc(O[C@@H](CC(C)C)[C@H]2CCNC2)ccc1Cl` [Example 10-75, (S)-3-[(S)-1-(4-Chloro-3-methylphenoxy)-3-methylbutyl]pyrrolidine], the IC50 on hNET [1] and on hSERT [2] was at most 10 nM each time.

Turning to `CC(C)C[C@H](Oc1c(F)cc(Cl)cc1F)[C@H]1CCNC1` [Example 10-67, (S)-3-[(S)-1-(4-Chloro-2,6-difluorophenoxy)-3-methylbutyl]pyrrolidine], the IC50 at hNET [1] and at hSERT [2] was at most 10 nM in each case.

For `CC(C)C[C@H](Oc1cccc2ccccc12)[C@H]1CCNC1` [Example 14-8, (S)-3-[(S)-3-Methyl-1-(naphthalen-1-yloxy)butyl]pyrrolidine], the IC50 on hNET [1] and on hSERT [2] was at most 10 nM in each case.

Turning to `CCC[C@@H](Oc1c(F)ccc(OC)c1Cl)[C@H]1CCNC1` [Example 4-42, (S)-3-[(R)-1-(2-Chloro-6-fluoro-3-methoxyphenoxy)butyl]pyrrolidine], the IC50 at hNET [1] and on hSERT [2] was at most 10 nM throughout.

With `CCC[C@@H](Oc1cccc(Cl)c1F)[C@@H]1CCNC1` [Example 4-47, (R)-3-[(R)-1-(3-Chloro-2-fluorophenoxy)butyl]pyrrolidine], the IC50 on hNET [1] was at most 10 nM; on hSERT [2], at most 100 nM.

Regarding `CC(C)C[C@H](Oc1cc(Cl)ccc1Cl)[C@H]1CCNC1` [Example 10-51, (S)-3-[(S)-1-(2,5-Dichlorophenoxy)-3-methylbutyl]pyrrolidine], the IC50 on hNET [1] and at hSERT [2] was at most 10 nM each time.

With `CC[C@@H](Oc1ccc(Cl)cc1)[C@H]1CCNC1` [Example 2-4, (S)-3-[(R)-1-(4-Chlorophenoxy)propyl]pyrrolidine], the IC50 at hNET [1] was at most 100 nM; at hSERT [2], at most 10 nM.
